Assay results reported in patent US20240101570A1 (AMGEN INC., priority 2020, published 2024).

Legend:
HCT116 WT cells = test: HCT116 WT cell proliferation / viability (CellTiter-Glo, 6 days); type: cell-based; settings: Homo sapiens, HCT-116, 144 h, HCT116 WT cells, 6 days, CellTiter-Glo; read-out: HCT-116 WT IC50
Method in brief: (§1)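 CellTiter-Glo luminescence, 6-day exposure, RPMI 1640 + 10% FBS. Dosing: 1:3 series (8-9 pts, top 1 or 10 μM) or 1:2 series (22 pts, top 10 or 50 μM), DMSO control. IC50 = 50% of control via curve fit.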

HCT116 MTAP null cells = test: HCT116 MTAP null cell proliferation / viability (CellTiter-Glo, 6 days); type: cell-based; settings: HCT116-MTAP null, 144 h, HCT116 MTAP null cells, 6 days, CellTiter-Glo; read-out: HCT-116 MTAP null IC50
Method in brief: as §1

Compound	IC50 (HCT116 WT cells) [nM]	IC50 (HCT116 MTAP null cells) [nM]
C[C@@H](c1ncccn1)N(Cc1ccc(C(F)(F)F)nn1)C(=O)c1ccc2nc(N)c3c(c2c1)COC3 [Example 440, 4-amino-N-((1S)-1-(2-pyrimidinyl)ethyl)-N-((6-(trifluoromethyl)-3-pyridazinyl)methyl)-1,3-dihydrofuro[3,4-c]quinoline-8-carboxamide]	> 10000	461
Nc1nc2ccc(C(=O)N(Cc3ccc(C(F)(F)F)cn3)C3CC3)cc2c2c1COC2 [Example 443, 4-amino-N-cyclopropyl-N-((5-(trifluoromethyl)-2-pyridinyl)methyl)-1,3-dihydrofuro[3,4-c]quinoline-8-carboxamide]	7210	127
CN(Cc1ccc(C(F)(F)F)cn1)C(=O)c1ccc2nc(N)c3c(c2c1)COC3 [Example 450, 4-amino-N-methyl-N-((5-(trifluoromethyl)-2-pyridinyl)methyl)-1,3-dihydrofuro[3,4-c]quinoline-8-carboxamide]	11500	159
CC(C)N(Cc1ccc(C(F)(F)F)cn1)C(=O)c1ccc2nc(N)c3c(c2c1)COC3 [Example 451, 4-amino-N-(2-propanyl)-N-((5-(trifluoromethyl)-2-pyridinyl)methyl)-1,3-dihydrofuro[3,4-c]quinoline-8-carboxamide]	4380	32
Nc1nc2ccc(C(=O)N(Cc3ccc(N4CCOCC4)nn3)CC3CC3)cc2c2c1COC2 [Example 452, 4-amino-N-(cyclopropylmethyl)-N-((6-(4-morpholinyl)-3-pyridazinyl)methyl)-1,3-dihydrofuro[3,4-c]quinoline-8-carboxamide]	1570	47
C[C@H](c1ncccn1)N(Cc1ccc(OCC(F)(F)F)nn1)C(=O)c1ccc2nc(N)c3c(c2c1)COC3 [Example 453, 4-amino-N-((1R)-1-(2-pyrimidinyl)ethyl)-N-((6-(2,2,2-trifluoroethoxy)-3-pyridazinyl)methyl)-1,3-dihydrofuro[3,4-c]quinoline-8-carboxamide]	543	35
N#Cc1ccc(CN(C(=O)c2ccc3nc(N)c4c(c3c2)COC4)C2CC2)nc1 [Example 454, 4-amino-N-((5-cyano-2-pyridinyl)methyl)-N-cyclopropyl-1,3-dihydrofuro[3,4-c]quinoline-8-carboxamide]	17900	550
Nc1nc2ccc(C(=O)N(Cc3ccc(Br)cn3)C3CC3)cc2c2c1COC2 [Example 455, 4-amino-N-((5-bromo-2-pyridinyl)methyl)-N-cyclopropyl-1,3-dihydrofuro[3,4-c]quinoline-8-carboxamide]	4780	148
Nc1nc2ccc(C(=O)N(Cc3ccc(C(F)F)cn3)C3CC3)cc2c2c1COC2 [Example 456, 4-amino-N-cyclopropyl-N-((5-(difluoromethyl)-2-pyridinyl)methyl)-1,3-dihydrofuro[3,4-c]quinoline-8-carboxamide]	> 10000	287
N#Cc1ccc(CN(CC2(C#N)CC2)C(=O)c2ccc3nc(N)c4c(c3c2)COC4)nc1 [Example 457, 4-amino-N-((1-cyanocyclopropyl)methyl)-N-((5-cyano-2-pyridinyl)methyl)-1,3-dihydrofuro[3,4-c]quinoline-8-carboxamide]	3180	132
C[C@H](c1ncccn1)N(Cc1ccc(C2CC2)nn1)C(=O)c1ccc2nc(N)c3c(c2c1)COC3 [Example 458, 4-amino-N-((6-cyclopropyl-3-pyridazinyl)methyl)-N-((1R)-1-(2-pyrimidinyl)ethyl)-1,3-dihydrofuro[3,4-c]quinoline-8-carboxamide]	361	26
N#Cc1ccc(CN(C(=O)c2cc3c4c(c(N)nc3cc2Cl)COC4)C2CC2)nc1 [Example 461, 4-amino-7-chloro-N-((5-cyano-2-pyridinyl)methyl)-N-cyclopropyl-1,3-dihydrofuro[3,4-c]quinoline-8-carboxamide]	4500	69
COc1ccc(CN(C(=O)c2ccc3nc(N)c4c(c3c2)COC4)C(C)C)nc1Cl [Example 462, 4-amino-N-((6-chloro-5-methoxy-2-pyridinyl)methyl)-N-(2-propanyl)-1,3-dihydrofuro[3,4-c]quinoline-8-carboxamide]	3940	105
COC[C@@H](C)N(Cc1ccc(Br)nn1)C(=O)c1ccc2nc(N)c3c(c2c1)COC3 [Example 463, 4-amino-N-((6-bromo-3-pyridazinyl)methyl)-N-((2R)-1-methoxy-2-propanyl)-1,3-dihydrofuro[3,4-c]quinoline-8-carboxamide]	440	14

Now those with a lower IC50 (HCT116 WT cells), led by results:

IC50 (HCT116 WT cells) [nM]	IC50 (HCT116 MTAP null cells) [nM]	Compound
138	7	C[C@H](c1ncccn1)N(Cc1ccc(Cl)cn1)C(=O)c1ccc2nc(N)c3c(c2c1)COC3 [Example 439, 4-amino-N-((5-chloro-2-pyridinyl)methyl)-N-((1R)-1-(2-pyrimidinyl)ethyl)-1,3-dihydrofuro[3,4-c]quinoline-8-carboxamide]
204	12	C[C@H](c1ncccn1)N(Cc1ccc(C(F)(F)F)nn1)C(=O)c1ccc2nc(N)c3c(c2c1)COC3 [Example 441, 4-amino-N-((1R)-1-(2-pyrimidinyl)ethyl)-N-((6-(trifluoromethyl)-3-pyridazinyl)methyl)-1,3-dihydrofuro[3,4-c]quinoline-8-carboxamide]
177	9	C[C@H](c1ncccc1F)N(Cc1ccc(C(F)(F)F)nn1)C(=O)c1ccc2nc(N)c3c(c2c1)COC3 [Example 442, 4-amino-N-((1R)-1-(3-fluoro-2-pyridinyl)ethyl)-N-((6-(trifluoromethyl)-3-pyridazinyl)methyl)-1,3-dihydrofuro[3,4-c]quinoline-8-carboxamide]
343	13	COCC(COC)N(Cc1ccc(C(F)(F)F)cn1)C(=O)c1ccc2nc(N)c3c(c2c1)COC3 [Example 444, 4-amino-N-(1,3-dimethoxy-2-propanyl)-N-((5-(trifluoromethyl)-2-pyridinyl)methyl)-1,3-dihydrofuro[3,4-c]quinoline-8-carboxamide]
153	8	COC[C@@H](C)N(Cc1ccc(C(F)(F)F)cn1)C(=O)c1ccc2nc(N)c3c(c2c1)COC3 [Example 445, 4-amino-N-((2R)-1-methoxy-2-propanyl)-N-((5-(trifluoromethyl)-2-pyridinyl)methyl)-1,3-dihydrofuro[3,4-c]quinoline-8-carboxamide]
237	12	COc1ccc(CN(C(=O)c2ccc3nc(N)c4c(c3c2)COC4)[C@H](C)c2ncccn2)nn1 [Example 446, 4-amino-N-((6-methoxy-3-pyridazinyl)methyl)-N-((1R)-1-(2-pyrimidinyl)ethyl)-1,3-dihydrofuro[3,4-c]quinoline-8-carboxamide]
256	31	Nc1nc2ccc(C(=O)N(Cc3ccc(C(F)(F)F)cn3)C3CCCn4ncnc43)cc2c2c1COC2 [Example 447, 4-amino-N-((8R)-5,6,7,8-tetrahydro[1,2,4]triazolo[1,5-alpyridin-8-yl)-N-((5-(trifluoromethyl)-2-pyridinyl)methyl)-1,3-dihydrofuro[3,4-c]quinoline-8-carboxamide and 4-amino-N-((8S)-5,6,7,8-tetrahydro[1,2,4]triazolo[1,5-a]pyridin-8-yl)-N-((5-(trifluoromethyl)-2-pyridinyl)methyl)-1,3-dihydrofuro[3,4-c]quinoline-8-carboxamide]
